From patent US20080045508A1, “SUBSTITUTED AMINOMETHYL BENZAMIDE COMPOUNDS” (priority 2006, published 2008) come the findings set out here.

The target of experiment [1] is cloned human H3 receptor, stably expressed in SK-N-MC cells (Homo sapiens, UniProt Q9Y5N1). The experiment is described as follows: H3 receptor binding.
Another experiment addresses rat brain SERT (Rattus norvegicus, UniProt P31652). Description: biochemical.
For another experiment, the target named is human H3 receptor (Homo sapiens, UniProt Q9Y5N1). Description: Cyclic AMP accumulation (reporter gene assay, SK-N-MC cells).
The target in experiment [2] is human SERT (HEK293 membranes) (Homo sapiens, UniProt P31645). Description: biochemical.
Sequence of human SERT (HEK293 membranes) (P31645 whole entry): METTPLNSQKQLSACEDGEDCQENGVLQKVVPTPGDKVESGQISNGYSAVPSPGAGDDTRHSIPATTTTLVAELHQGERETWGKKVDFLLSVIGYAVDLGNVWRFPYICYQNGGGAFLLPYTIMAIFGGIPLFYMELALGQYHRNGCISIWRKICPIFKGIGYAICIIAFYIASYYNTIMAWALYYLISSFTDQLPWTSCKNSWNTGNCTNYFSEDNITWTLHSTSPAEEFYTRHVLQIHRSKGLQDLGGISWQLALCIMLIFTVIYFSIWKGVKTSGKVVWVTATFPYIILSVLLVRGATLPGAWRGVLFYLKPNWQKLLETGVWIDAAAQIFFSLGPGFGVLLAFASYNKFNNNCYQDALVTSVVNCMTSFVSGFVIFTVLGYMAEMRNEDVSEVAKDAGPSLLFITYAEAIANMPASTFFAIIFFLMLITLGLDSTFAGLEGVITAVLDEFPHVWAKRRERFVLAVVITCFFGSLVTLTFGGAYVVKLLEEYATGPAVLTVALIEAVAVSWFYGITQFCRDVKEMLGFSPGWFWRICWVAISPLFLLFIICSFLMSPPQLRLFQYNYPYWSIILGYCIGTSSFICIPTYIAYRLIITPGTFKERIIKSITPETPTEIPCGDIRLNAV
Method: Homogenized HEK293 (Human Embryonic Kidney) membranes expressing the human SERT were incubated with ^3H-citalopram (SERT) at rt for 1 h in 50 mM Tris, 120 mM NaCl, 5 mM KCl (pH 7.4). Nonspecific binding was determined in the presence of 10 μM fluoxetine for the SERT. The membranes were washed and the radioactivity was counted as above.

Sequence of cloned human H3 receptor, stably expressed in SK-N-MC cells (Q9Y5N1 whole entry): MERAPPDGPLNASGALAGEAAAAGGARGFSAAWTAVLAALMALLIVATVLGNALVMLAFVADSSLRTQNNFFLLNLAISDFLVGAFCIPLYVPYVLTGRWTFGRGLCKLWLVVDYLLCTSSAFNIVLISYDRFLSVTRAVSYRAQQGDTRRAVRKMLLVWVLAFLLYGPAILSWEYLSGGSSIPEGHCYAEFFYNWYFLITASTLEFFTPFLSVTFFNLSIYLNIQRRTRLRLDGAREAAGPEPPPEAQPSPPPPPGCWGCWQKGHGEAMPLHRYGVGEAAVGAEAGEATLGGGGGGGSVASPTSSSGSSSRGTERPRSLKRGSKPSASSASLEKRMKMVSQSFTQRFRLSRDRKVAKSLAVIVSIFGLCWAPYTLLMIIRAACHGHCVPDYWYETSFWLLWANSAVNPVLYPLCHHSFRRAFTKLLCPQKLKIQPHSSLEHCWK
Sequence of rat brain SERT (P31652 whole entry): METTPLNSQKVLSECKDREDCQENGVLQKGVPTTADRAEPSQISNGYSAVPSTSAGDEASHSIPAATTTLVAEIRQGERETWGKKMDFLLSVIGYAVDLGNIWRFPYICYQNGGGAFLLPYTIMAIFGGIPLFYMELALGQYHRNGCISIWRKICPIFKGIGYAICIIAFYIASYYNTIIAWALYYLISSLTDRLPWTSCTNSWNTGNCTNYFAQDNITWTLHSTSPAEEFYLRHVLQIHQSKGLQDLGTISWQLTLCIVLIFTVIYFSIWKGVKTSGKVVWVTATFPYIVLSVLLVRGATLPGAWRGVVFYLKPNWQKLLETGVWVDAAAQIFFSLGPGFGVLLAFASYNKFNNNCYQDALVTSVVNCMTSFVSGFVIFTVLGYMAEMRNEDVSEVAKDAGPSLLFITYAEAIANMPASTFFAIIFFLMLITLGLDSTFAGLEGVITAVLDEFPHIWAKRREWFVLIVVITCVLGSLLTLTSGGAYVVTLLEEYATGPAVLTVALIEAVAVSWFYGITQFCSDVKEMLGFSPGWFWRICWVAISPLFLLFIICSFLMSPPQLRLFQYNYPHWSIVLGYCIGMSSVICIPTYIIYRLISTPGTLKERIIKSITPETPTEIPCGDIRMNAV
Sequence of human H3 receptor (Q9Y5N1 whole entry): as the sequence (Q9Y5N1 whole entry) above
Method for rat brain SERT: The supernatant was removed and re-centrifuged at 15,000 rpm for 30 min. […] Membranes were incubated with 0.6 nM [^3H]-Citalopram plus/minus test compounds for 60 min at 25° C. and harvested by rapid filtration over GF/C glass fiber filters (pretreated with 0.3% polyethylenimine) followed by four washes with ice-cold buffer. Nonspecific binding was defined in the presence of 100 μM fluoxetine.

For `CNCc1cc(C(=O)N2CCCN(C3CC3)CC2)ccc1Oc1cccc(F)c1F` [Example 32, (4-Cyclopropyl-[1,4]diazepan-1-yl)-[4-(2,3-difluoro-phenoxy)-3-methylaminomethyl-phenyl]-methanone], the figures for the inhibition constant Ki (in experiment [1]; at rat brain SERT) were 0.6 nM and 31 nM, respectively.
For the molecule `CNCc1cc(C(=O)N2CCCN(C3CC3)CC2)ccc1Oc1ccc(F)cc1Cl` [Example 33, [4-(2-Chloro-4-fluoro-phenoxy)-3-methylaminomethyl-phenyl]-(4-cyclopropyl-[1,4]diazepan-1-yl)-methanone], the Ki in experiment [1] came to 0.9 nM; at rat brain SERT it was 28 nM.
The matching figures for `CN(Cc1cc(C(=O)N2CCCN(C3CC3)CC2)ccc1Oc1ccc(Cl)cc1)C1CC1` [Example 34, {4-(4-Chloro-phenoxy)-3-[(cyclopropyl-methyl-amino)-methyl]-phenyl}-(4-cyclopropyl-[1,4]diazepan-1-yl)-methanone]: 2 nM and 62 nM.
The matching figures for `CNCc1cc(C(=O)N2CCCN(C3CC3)CC2)ccc1Oc1cccc(Cl)c1Cl` [Example 35, (4-Cyclopropyl-[1,4]diazepan-1-yl)-[4-(2,3-dichloro-phenoxy)-3-methylaminomethyl-phenyl]-methanone]: 2 nM and 15 nM.
The corresponding values for `Cc1ccc(Oc2ccc(C(=O)N3CCCN(C4CC4)CC3)cc2CN(C)C)cn1` [Example 36, (4-Cyclopropyl-[1,4]diazepan-1-yl)-[3-dimethylaminomethyl-4-(6-methyl-pyridin-3-yloxy)-phenyl]-methanone] are 2 nM and 59 nM.
Take `CNCc1cc(C(=O)N2CCCN(C3CC3)CC2)ccc1Sc1ccc(Cl)cc1` [Example 37, [4-(4-Chloro-phenylsulfanyl)-3-methylaminomethyl-phenyl]-(4-cyclopropyl-[1,4]diazepan-1-yl)-methanone]: the inhibition constant Ki is 2 nM in experiment [1] and 5 nM at rat brain SERT.
The corresponding values for `CNCc1cc(C(=O)N2CCCN(C3CC3)CC2)ccc1Sc1ccccn1` [Example 38, (4-Cyclopropyl-[1,4]diazepan-1-yl)-[3-methylaminomethyl-4-(pyridin-2-ylsulfanyl)-phenyl]-methanone] are 2 nM and 5000 nM.
With `CNCc1cc(C(=O)N2CCCN(C3CC3)CC2)ccc1Oc1ccccn1` [Example 39, (4-Cyclopropyl-[1,4]diazepan-1-yl)-[3-methylaminomethyl-4-(pyridin-2-yloxy)-phenyl]-methanone], the figures for the Ki (in experiment [1]; at rat brain SERT) were 0.9 nM and 15 nM, respectively.
Regarding `O=C(c1ccc(CNC2CC2)c(Oc2cccnc2)c1)N1CCCN(C2CC2)CC1` [Example 40, [4-Cyclopropylaminomethyl-3-(pyridin-3-yloxy)-phenyl]-(4-cyclopropyl-[1,4]diazepan-1-yl)-methanone], the inhibition constant (Ki) in experiment [1] was 2 nM; on rat brain SERT it was 5000 nM. The molecule further had a Kb on human H3 receptor of 0.501 nM.
The corresponding values for `O=C(c1ccc(CN2CCCCC2)c(Oc2cccnc2)c1)N1CCCN(C2CC2)CC1` [Example 41, (4-Cyclopropyl-[1,4]diazepan-1-yl)-[4-piperidin-1-ylmethyl-3-(pyridin-3-yloxy)-phenyl]-methanone] are 1 nM, 10000 nM and 0.0631 nM.
In the case of `CNCc1cc(C(=O)N2CCCN(C3CC3)CC2)ccc1OCc1ccc(Cl)c(Cl)c1` [Example 42, (4-Cyclopropyl-[1,4]diazepan-1-yl)-[4-(3,4-dichloro-benzyloxy)-3-methylaminomethyl-phenyl]-methanone], the Ki in experiment [1] turned out to be 4 nM; at rat brain SERT it was 2 nM.
The corresponding values for `CNCc1cc(C(=O)N2CCCN(C3CC3)CC2)ccc1Sc1cc(C(F)(F)F)ccn1` [Example 47, (4-Cyclopropyl-[1,4]diazepan-1-yl)-[3-methylaminomethyl-4-(4-trifluoromethyl-pyridin-2-ylsulfanyl)-phenyl]-methanone] are 4 nM and 410 nM.
Take `CNCc1cc(C(=O)N2CCCN(C3CCC3)CC2)ccc1Oc1ccc(Cl)c(Cl)c1` [Example 48, (4-Cyclobutyl-[1,4]diazepan-1-yl)-[4-(3,4-dichloro-phenoxy)-3-methylaminomethyl-phenyl]-methanone]: the inhibition constant Ki in experiment [1] is 5.2 nM; on rat brain SERT, 7.9 nM; in experiment [2], 9.8 nM.
With `Cc1ccc(Oc2cc(C(=O)N3CCCN(C(C)C)CC3)ccc2CN(C)C)c(C)n1` [Example 49, [4-Dimethylaminomethyl-3-(2,6-dimethyl-pyridin-3-yloxy)-phenyl]-(4-isopropyl-[1,4]diazepan-1-yl)-methanone], the inhibition constant (Ki) came out at 11 nM in experiment [1] and 2000 nM on rat brain SERT.
In turn, `CC(C)N1CCCN(C(=O)c2ccc(CN3CCCCC3)c(OCc3ccccc3)c2)CC1` [Example 50, (3-Benzyloxy-4-piperidin-1-ylmethyl-phenyl)-(4-isopropyl-[1,4]diazepan-1-yl)-methanone] returned an inhibition constant (Ki) in experiment [1] of 9 nM.
On the same count and under the same terms, the same measure for `O=C(c1ccc(CN2CCOCC2)c(Oc2cccnc2)c1)N1CCCN(C2CC2)CC1` [Example 51, (4-Cyclopropyl-[1,4]diazepan-1-yl)-[4-morpholin-4-ylmethyl-3-(pyridin-3-yloxy)-phenyl]-methanone]: 3 nM.
`CNCc1ccc(C(=O)N2CCCN(C3CC3)CC2)cc1Oc1ccc(Cl)c(Cl)c1` [Example 52, (4-Cyclopropyl-[1,4]diazepan-1-yl)-[3-(3,4-dichloro-phenoxy)-4-methylaminomethyl-phenyl]-methanone]: the figures for the inhibition constant (Ki) (in experiment [1]; on rat brain SERT) were 6 nM and 17 nM, respectively.
Molecule `CC(C)N1CCCN(C(=O)c2ccc(CN3CCOC(CO)C3)c(Oc3ccccc3)c2)CC1` (stereo not shown) [Example 53, [4-(2-Hydroxymethyl-morpholin-4-ylmethyl)-3-phenoxy-phenyl]-(4-isopropyl-[1,4]diazepan-1-yl)-methanone] displayed an inhibitory constant (Ki) in experiment [1] of 3 nM.
Still for that read-out and setting: in the case of `COCCN(CCOC)Cc1ccc(C(=O)N2CCCN(C3CC3)CC2)cc1OCc1ccccc1` [Example 54, (3-Benzyloxy-4-{[bis-(2-methoxy-ethyl)-amino]-methyl}-phenyl)-(4-cyclopropyl-[1,4]diazepan-1-yl)-methanone] it was 2 nM.
